Like-named read-outs stand apart in the source and are kept apart here.
Tests used:
TOPOIIα = target: T1, TOPOIIα (Homo sapiens, UniProt P11388); test: kDNA decatenation assay, TOPOIIα; format: biochemical; conditions: for TOPOIIα inhibition, in words: decatenation assay;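 as to all read-outs here: kDNA incubated with one unit of TOPOIIα at 37 °C for 30 min, decatenated product resolved on 1% agarose gel, inhibition from relative band intensity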
T1 construct: purchased Inspiralis

TOPOIIβ = target: T2, TOPOIIβ (Homo sapiens, UniProt Q02880); test: kDNA decatenation assay, TOPOIIβ; format: biochemical; conditions: for TOPOIIβ inhibition, in words: decatenation assay;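 as to all read-outs here: kinetoplast DNA incubated with one unit of TOPOIIβ at 37 °C for 30 min, decatenated product resolved on 1% agarose gel, inhibition scored from relative band intensity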
T2 construct: purchased Inspiralis
T2 sequence (Q02880 whole entry): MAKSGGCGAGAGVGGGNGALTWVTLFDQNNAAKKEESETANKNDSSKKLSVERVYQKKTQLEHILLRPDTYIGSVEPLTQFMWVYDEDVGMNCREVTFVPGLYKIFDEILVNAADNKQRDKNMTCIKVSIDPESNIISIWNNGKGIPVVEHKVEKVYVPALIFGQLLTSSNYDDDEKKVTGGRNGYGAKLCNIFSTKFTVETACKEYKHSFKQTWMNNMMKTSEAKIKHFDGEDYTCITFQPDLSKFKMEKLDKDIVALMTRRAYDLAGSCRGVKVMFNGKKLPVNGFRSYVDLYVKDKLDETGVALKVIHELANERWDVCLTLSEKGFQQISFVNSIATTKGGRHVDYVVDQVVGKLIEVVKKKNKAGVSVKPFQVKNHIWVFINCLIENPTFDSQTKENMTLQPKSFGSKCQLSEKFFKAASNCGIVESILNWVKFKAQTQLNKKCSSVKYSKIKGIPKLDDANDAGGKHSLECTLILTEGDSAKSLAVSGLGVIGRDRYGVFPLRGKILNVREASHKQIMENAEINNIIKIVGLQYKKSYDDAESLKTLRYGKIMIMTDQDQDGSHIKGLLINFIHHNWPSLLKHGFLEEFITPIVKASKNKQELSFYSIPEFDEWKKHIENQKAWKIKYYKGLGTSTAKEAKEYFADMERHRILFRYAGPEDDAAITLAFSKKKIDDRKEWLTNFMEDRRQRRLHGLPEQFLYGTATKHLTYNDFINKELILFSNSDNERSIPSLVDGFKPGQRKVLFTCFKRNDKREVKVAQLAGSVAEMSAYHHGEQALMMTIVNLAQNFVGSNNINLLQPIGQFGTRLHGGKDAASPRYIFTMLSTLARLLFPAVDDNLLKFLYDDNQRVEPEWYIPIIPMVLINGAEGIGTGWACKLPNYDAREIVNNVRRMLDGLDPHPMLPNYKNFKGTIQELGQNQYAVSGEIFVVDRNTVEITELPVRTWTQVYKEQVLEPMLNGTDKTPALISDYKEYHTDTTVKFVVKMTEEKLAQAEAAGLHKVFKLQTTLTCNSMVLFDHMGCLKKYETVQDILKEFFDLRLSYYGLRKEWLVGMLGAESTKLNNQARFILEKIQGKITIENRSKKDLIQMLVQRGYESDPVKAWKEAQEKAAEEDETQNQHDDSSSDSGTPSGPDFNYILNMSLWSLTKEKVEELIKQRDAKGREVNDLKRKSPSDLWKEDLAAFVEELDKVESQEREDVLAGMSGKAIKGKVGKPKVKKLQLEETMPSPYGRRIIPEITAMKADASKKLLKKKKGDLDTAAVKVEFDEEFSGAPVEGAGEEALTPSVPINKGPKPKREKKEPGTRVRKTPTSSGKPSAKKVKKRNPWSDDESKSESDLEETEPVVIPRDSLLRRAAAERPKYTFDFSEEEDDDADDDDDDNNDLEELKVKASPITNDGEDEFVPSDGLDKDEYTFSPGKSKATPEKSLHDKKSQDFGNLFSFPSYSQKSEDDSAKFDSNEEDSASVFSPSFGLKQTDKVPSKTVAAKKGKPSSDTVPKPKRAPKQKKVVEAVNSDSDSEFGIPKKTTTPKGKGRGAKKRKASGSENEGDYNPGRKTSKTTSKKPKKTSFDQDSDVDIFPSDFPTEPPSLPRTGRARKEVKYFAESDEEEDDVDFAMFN

[1] = system: Doxorubicin treated human iPSC-derived cardiomyocytes; test: iPSC-CM protection by myricetin analogs (Table 1); format: cell-based; conditions: for cardioprotection, in words: Table 1
[2] = initial screen at 10 μM or 100 μM
[3] = read-out: iPSC-CM protection EC50
[4] = Homo sapiens, iPSC-CM, initial screen at 10 μM or 100 μM, read-out: iPSC-CM protection Max Effect (%), class symbol
[5] = Homo sapiens, iPSC-CM, read-out: iPSC-CM protection Max Effect (%), class symbol
[6] = Homo sapiens, iPSC-CM, read-out: iPSC-CM protection EC50
[7] = Homo sapiens, iPSC-CM, read-out: iPSC-CM protection Max Effect (%)

T1 sequence (P11388 whole entry): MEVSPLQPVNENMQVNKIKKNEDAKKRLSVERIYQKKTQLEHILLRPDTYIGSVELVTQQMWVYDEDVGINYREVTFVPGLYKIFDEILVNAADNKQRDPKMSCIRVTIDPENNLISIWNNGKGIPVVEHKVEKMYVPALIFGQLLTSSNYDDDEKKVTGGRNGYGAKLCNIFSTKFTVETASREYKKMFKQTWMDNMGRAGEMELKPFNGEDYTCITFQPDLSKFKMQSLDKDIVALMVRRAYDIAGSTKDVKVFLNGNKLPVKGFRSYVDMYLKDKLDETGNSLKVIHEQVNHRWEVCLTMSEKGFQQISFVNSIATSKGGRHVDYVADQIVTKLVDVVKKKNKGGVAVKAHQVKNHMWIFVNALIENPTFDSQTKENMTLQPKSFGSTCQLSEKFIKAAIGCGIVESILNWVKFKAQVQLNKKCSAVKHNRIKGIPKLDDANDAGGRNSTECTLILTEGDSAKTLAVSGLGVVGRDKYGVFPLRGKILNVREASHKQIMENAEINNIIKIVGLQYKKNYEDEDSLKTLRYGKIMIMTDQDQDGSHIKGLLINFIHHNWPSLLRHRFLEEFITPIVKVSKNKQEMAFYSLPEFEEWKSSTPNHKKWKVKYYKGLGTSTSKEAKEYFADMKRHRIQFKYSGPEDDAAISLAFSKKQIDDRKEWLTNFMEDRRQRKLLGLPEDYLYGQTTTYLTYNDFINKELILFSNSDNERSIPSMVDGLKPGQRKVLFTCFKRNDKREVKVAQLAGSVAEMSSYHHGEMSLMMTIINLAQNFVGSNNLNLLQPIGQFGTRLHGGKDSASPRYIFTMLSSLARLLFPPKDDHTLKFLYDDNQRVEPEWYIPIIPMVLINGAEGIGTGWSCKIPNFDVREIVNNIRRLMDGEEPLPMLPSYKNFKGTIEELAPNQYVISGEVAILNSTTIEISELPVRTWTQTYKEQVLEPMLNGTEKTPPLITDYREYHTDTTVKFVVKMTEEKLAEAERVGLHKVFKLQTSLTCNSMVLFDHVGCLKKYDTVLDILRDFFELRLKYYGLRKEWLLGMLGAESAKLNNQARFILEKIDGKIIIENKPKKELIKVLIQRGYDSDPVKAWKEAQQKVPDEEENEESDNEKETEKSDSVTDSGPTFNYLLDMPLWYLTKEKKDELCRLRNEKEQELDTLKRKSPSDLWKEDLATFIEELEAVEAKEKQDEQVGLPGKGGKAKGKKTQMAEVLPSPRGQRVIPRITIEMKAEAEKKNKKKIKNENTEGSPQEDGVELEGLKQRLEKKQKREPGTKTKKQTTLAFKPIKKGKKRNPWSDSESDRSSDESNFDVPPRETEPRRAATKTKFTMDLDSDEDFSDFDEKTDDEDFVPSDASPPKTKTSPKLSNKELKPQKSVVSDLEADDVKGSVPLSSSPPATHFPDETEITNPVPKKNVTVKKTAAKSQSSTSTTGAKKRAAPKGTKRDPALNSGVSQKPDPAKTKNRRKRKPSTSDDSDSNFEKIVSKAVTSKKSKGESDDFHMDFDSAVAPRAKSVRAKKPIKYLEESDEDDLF

SMILES	TOPIIα Inhibition (TOPOIIα)	TOPIIβ Inhibition (TOPOIIβ)	Rescue [1]	Emax [1, 4] [%]	further results
COc1cc(-c2oc3cc(O)ccc3c(=O)c2O)cc(OC)c1OC [Compound 35, 3',4',5'-O-trimethylrobinetin]	−	−	−		TOPOIIα inhibition, in words (TOPOIIα): entirely failed to display cardioprotection or TOPOII inhibition; TOPOIIβ inhibition, in words (TOPOIIβ): entirely failed to display cardioprotection or TOPOII inhibition; cardioprotection, in words [1]: entirely failed to display cardioprotection or TOPOII inhibition; iPSC-CM protection Max Effect (%), class symbol [1, 2]: † (Compounds failed to exhibit >30% protection Max Effect at 10 μM or 100 μM on initial screen.)
O=c1cc(-c2cc(O)c(O)c(O)c2)oc2ccccc12 [3′,4′,5′-trihydroxyflavone]					EC50 ([1]; Homo sapiens, Cardiomyocyte, read-out: potency for cardioprotection): ≥ 30 µM
COc1c(O)cc(-c2oc3cc(O)cc(O)c3c(=O)c2O)cc1O [Compound 32, 4′-O-methylmyricetin]	−	−	+		iPSC-CM protection Max Effect (%) [1]: 68%; EC50 [1, 3]: 48.6 µM
COc1ccc2c(=O)c(O)c(-c3cc(OC)c(OC)c(OC)c3)oc2c1 [Compound 36, 7,3′,4′,5′-O-tetramethylrobinetin]	−	−	−		iPSC-CM protection Max Effect (%), class symbol [1, 2]: † (Compounds failed to exhibit >30% protection Max Effect at 10 μM or 100 μM on initial screen.)
O=c1c(O)c(-c2ccc(O)cc2)oc2ccccc12 [Compound 16, 3,4′-dihydroxyflavone]			−	< 30	
O=c1c(O)c(-c2ccccc2)oc2cc(O)cc(O)c12 [Compound 19, 3,5,7-trihydroxyflavone]			−	< 30	
COc1cc(-c2oc3cc(O)cc(O)c3c(=O)c2O)cc(O)c1O [Compound 31, 3′-O-methylmyricetin]	−	−	+		iPSC-CM protection Max Effect (%) [1]: 76%; EC50 [1, 3]: 58.7 µM
O=c1cc(-c2ccccc2)oc2cc(O)ccc12 [Compound 24, 7-hydroxyflavone]			−		Emax [1, 5]: < 30%
COc1c(O)cc(-c2oc3cc(O)cc(O)c3c(=O)c2O)cc1O [4′-O-methylmyricetin]					TOPOIIα inhibition, in words (TOPOIIα): without TOPOII inhibition; TOPOIIβ inhibition, in words (TOPOIIβ): without TOPOII inhibition; cardioprotection, in words [1]: conferred cardioprotection; EC50 ([1]; approximate, read-out: EC50 for cardioprotection): ~48.7 µM
COc1ccc2c(=O)c(O)c(-c3cc(OC)c(OC)c(OC)c3)oc2c1 [7,3′,4′,5′-O-tetramethylrobinetin]					TOPOIIα inhibition, in words (TOPOIIα): entirely failed to display cardioprotection or TOPOII inhibition; TOPOIIβ inhibition, in words (TOPOIIβ): entirely failed to display cardioprotection or TOPOII inhibition; cardioprotection, in words [1]: entirely failed to display cardioprotection or TOPOII inhibition
O=c1c(O)c(-c2cccc(O)c2)oc2ccccc12 [Compound 22, 3,3′-dihydroxyflavone]			−	< 30	
COc1ccc2c(=O)c(OC)c(-c3cc(OC)c(OC)c(OC)c3)oc2c1 [3,7,3′,4′,5′-O-pentamethylrobinetin]					TOPOIIα inhibition, in words (TOPOIIα): entirely failed to display cardioprotection or TOPOII inhibition; TOPOIIβ inhibition, in words (TOPOIIβ): entirely failed to display cardioprotection or TOPOII inhibition; cardioprotection, in words [1]: entirely failed to display cardioprotection or TOPOII inhibition
COc1cc(-c2oc3cc(O)cc(O)c3c(=O)c2O)cc(OC)c1O [Compound 33, 3′,5′-O-dimethylmyricetin]	−	−	−		iPSC-CM protection Max Effect (%), class symbol [1, 2]: † (Compounds failed to exhibit >30% protection Max Effect at 10 μM or 100 μM on initial screen.)
O=c1cc(-c2ccccc2)oc2cc(O)cc(O)c12 [Compound 23, 5,7-dihydroxyflavone]			−	< 30	
O=C1c2ccc(O)cc2OC(c2cc(O)c(O)c(O)c2)C1O (stereo in doubt) [Compound 30, dihydrorobinetin]	−	−			TOPOIIα inhibition, in words (TOPOIIα): no inhibitory activity; TOPOIIβ inhibition, in words (TOPOIIβ): no inhibitory activity; iPSC-CM protection Max Effect (%) [1]: 53%; EC50 [1, 3]: 14 µM
O=c1cc(-c2ccc(O)cc2)oc2cc(O)ccc12 [Compound 15, 7,4′-dihydroxyflavone]			−	< 30	

SMILES	TOPIIα Inhibition (TOPOIIα)	TOPIIβ Inhibition (TOPOIIβ)	Rescue [1]	Emax [1, 4] [%]	further results
COc1cc(-c2oc3cc(O)cc(O)c3c(=O)c2O)cc(OC)c1OC [Compound 34, 3′,4′,5′-O-trimethylmyricetin]	−	−	−		iPSC-CM protection Max Effect (%), class symbol [1, 2]: † (Compounds failed to exhibit >30% protection Max Effect at 10 μM or 100 μM on initial screen.)
O=c1c(O)c(-c2ccc(O)c(O)c2)oc2cc(O)ccc12 [Compound 5, 3,7,3′,4′-tetrahydroxyflavone]					EC50 [1, 6]: 16.3 µM; Emax [1, 7]: 36%
O=c1c(O)c(-c2ccccc2)oc2cc(O)ccc12 [Compound 20, 3,7-dihydroxyflavone]			−		
O=c1c(O)c(-c2ccccc2)oc2ccccc12 [Compound 25, 3-hydroxyflavone]			−	< 30	
O=c1c(O)c(-c2ccc(O)c(O)c2)oc2ccccc12 [Compound 12, 3,3′,4′-trihydroxyflavone]	−	−	+		EC50 [1, 6]: 6.43 µM; Emax [1, 7]: 16%
COc1ccc2c(=O)c(OC)c(-c3cc(OC)c(OC)c(OC)c3)oc2c1 [Compound 37, 3,7,3′,4′,5′-O-pentamethylrobinetin]	−	−	−		iPSC-CM protection Max Effect (%), class symbol [1, 2]: † (Compounds failed to exhibit >30% protection Max Effect at 10 μM or 100 μM on initial screen.)
O=c1ccoc2cc(O)ccc12 [Compound 38, 7-hydroxy-4-chromone]	−	−	−	< 30	
O=c1cc(-c2cccc(O)c2)oc2ccccc12 [Compound 27, 3′-hydroxyflavone]			−	< 30	
O=c1cc(-c2cccc(O)c2)oc2cc(O)ccc12 [Compound 21, 7,3′-dihydroxyflavone]			−	< 30	
O=c1c(O)c(-c2cccc(O)c2)oc2cc(O)ccc12 [Compound 18, 3,7,3′-trihydroxyflavone]			−	< 30	
O=c1cc(-c2ccc(O)c(O)c2)oc2ccccc12 [Compound 14, 3′,4′-dihydroxyflavone]			−	< 30	
O=c1cc(-c2ccccc2)oc2ccccc12 [Compound 28, flavone]			−	< 30	
O=c1cc(-c2cc(O)cc(O)c2)oc2ccccc12 [Compound 26, 3′,5′-dihydroxyflavone]			−		Emax [1, 5]: < 30%
O=c1cc(-c2ccc(O)cc2)oc2ccccc12 [Compound 17, 4′-hrydroxyflavone]			−		iPSC-CM protection Max Effect (%), class symbol [1, 2]: † (Compounds failed to exhibit >30% protection Max Effect at 10 μM or 100 μM on initial screen.)
O=c1cc(-c2ccc(O)cc2)oc2cc(O)cc(O)c12 [Compound 13, 5,7,4′,-trihydroxyflavone]			−	< 30	

From US11786503B2, “Pharmaceutical compositions and methods for countering chemotherapy induced cardiotoxicity” (Auransa Inc., priority 2016, dated 2023)
